Data: PubChem BioAssay (NCI)
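Results reflect a 48-hour exposure of cells in 96-well plates to compound at five concentrations. Here, GI50 denotes the concentration required for 50% inhibition of growth. TGI: concentration producing complete growth inhibition.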

Key:
Experiment in all cases: growth of human tumour cells (NCI), 48 h
SK-OV-3 ovarian = system: SK-OV-3 ovarian
A498 renal = system: A498 renal
OVCAR-8 ovarian = system: OVCAR-8 ovarian
SNB-75 CNS = system: SNB-75 CNS
HOP-62 NSCLC = system: HOP-62 NSCLC
OVCAR-3 ovarian = system: OVCAR-3 ovarian
HL-60(TB) leukemia = system: HL-60(TB) leukemia
HS 578T breast = system: HS 578T breast
NCI-H460 lung = system: NCI-H460 lung
U251 CNS = system: U251 CNS
RPMI-8226 leukemia = system: RPMI-8226 leukemia
NCI-H522 lung = system: NCI-H522 lung
SNB-19 CNS = system: SNB-19 CNS
UACC-257 melanoma = system: UACC-257 melanoma
T-47D breast = system: T-47D breast
NCI-H23 lung = system: NCI-H23 lung
OVCAR-4 ovarian = system: OVCAR-4 ovarian
NCI-H226 lung = system: NCI-H226 lung
PC-3 prostate = system: PC-3 prostate
DU-145 prostate = system: DU-145 prostate
M14 melanoma = system: M14 melanoma
MDA-MB-435 = system: MDA-MB-435
SK-MEL-2 melanoma = system: SK-MEL-2 melanoma
KM12 colon = system: KM12 colon
SK-MEL-28 melanoma = system: SK-MEL-28 melanoma
TK-10 renal = system: TK-10 renal
MDA-MB-231 breast = system: MDA-MB-231 breast
SF-268 CNS = system: SF-268 CNS
786-0 renal = system: 786-0 renal
UO-31 renal = system: UO-31 renal
MCF7 breast = system: MCF7 breast
SF-295 CNS = system: SF-295 CNS
HOP-92 NSCLC = system: HOP-92 NSCLC
MDA-MB-468 breast = system: MDA-MB-468 breast
SW-620 colon = system: SW-620 colon
UACC-62 melanoma = system: UACC-62 melanoma
SN12C renal = system: SN12C renal
SR leukemia = system: SR leukemia
OVCAR-5 ovarian = system: OVCAR-5 ovarian
SF-539 CNS = system: SF-539 CNS
MOLT-4 leukemia = system: MOLT-4 leukemia
CAKI-1 renal = system: CAKI-1 renal
MALME-3M melanoma = system: MALME-3M melanoma
HT29 colon = system: HT29 colon
A549 NSCLC = system: A549 NSCLC
BT-549 breast = system: BT-549 breast
LOX IMVI melanoma = system: LOX IMVI melanoma
CCRF-CEM leukemia = system: CCRF-CEM leukemia
HCT-116 colon = system: HCT-116 colon
HCC-2998 colon = system: HCC-2998 colon
EKVX NSCLC = system: EKVX NSCLC
ACHN renal = system: ACHN renal
COLO 205 colon = system: COLO 205 colon
K-562 leukemia = system: K-562 leukemia
IGROV1 ovarian = system: IGROV1 ovarian
RXF 393 renal = system: RXF 393 renal
SK-MEL-5 melanoma = system: SK-MEL-5 melanoma
HCT-15 colon = system: HCT-15 colon

For `COc1ccc2nc(Nc3cccc(NC(=O)c4ccc(CN5CCN(C)CC5)c(C(F)(F)F)c4)c3)ccc2c1`, which GI50 (SK-OV-3 ovarian) is on record?
Its GI50 is 5.99 µM.

What about the TGI (SK-OV-3 ovarian) of the same compound?
Its TGI is 11.4 µM.

What about the GI50 (A498 renal) of the same compound?
Its GI50 is 7.36 µM.

What about the TGI (A498 renal) of the same compound?
The TGI was 13.2 µM.

And the GI50 (OVCAR-8 ovarian)?
The GI50 was 5.82 µM.

And the TGI (OVCAR-8 ovarian)?
The TGI was 11.1 µM.

What about the GI50 (SNB-75 CNS) of the same compound?
The GI50 was 0.684 µM.

What about the TGI (SNB-75 CNS) of the same compound?
The TGI was 6.45 µM.

And the GI50 (HOP-62 NSCLC)?
Its GI50 is 6.36 µM.

What about the TGI (HOP-62 NSCLC) of the same compound?
Its TGI is 12 µM.

And the GI50 (OVCAR-3 ovarian)?
Its GI50 is 5.89 µM.

And the TGI (OVCAR-3 ovarian)?
Its TGI is 11.2 µM.

And the GI50 (HL-60(TB) leukemia)?
Its GI50 is 5.46 µM.

What about the TGI (HL-60(TB) leukemia) of the same compound?
The TGI was 12.4 µM.

And the GI50 (HS 578T breast)?
Its GI50 is 4.14 µM.

And the TGI (HS 578T breast)?
Its TGI is 15 µM.

What about the GI50 (NCI-H460 lung) of the same compound?
The GI50 was 1.88 µM.

And the TGI (NCI-H460 lung)?
Its TGI is 7.21 µM.

What about the GI50 (U251 CNS) of the same compound?
Its GI50 is 3.77 µM.

What about the TGI (U251 CNS) of the same compound?
The TGI was 8.84 µM.

And the GI50 (RPMI-8226 leukemia)?
The GI50 was 3.14 µM.

And the TGI (RPMI-8226 leukemia)?
Its TGI is 10.3 µM.

What about the GI50 (NCI-H522 lung) of the same compound?
Its GI50 is 4.88 µM.

What about the TGI (NCI-H522 lung) of the same compound?
The TGI was 10.3 µM.

What about the GI50 (SNB-19 CNS) of the same compound?
Its GI50 is 6.14 µM.

What about the TGI (SNB-19 CNS) of the same compound?
The TGI was 11.5 µM.

What about the GI50 (UACC-257 melanoma) of the same compound?
Its GI50 is 4.35 µM.

And the TGI (UACC-257 melanoma)?
The TGI was 9.13 µM.

And the GI50 (T-47D breast)?
The GI50 was 4.12 µM.

What about the TGI (T-47D breast) of the same compound?
The TGI was 9.96 µM.

What about the GI50 (NCI-H23 lung) of the same compound?
The GI50 was 5.06 µM.

And the TGI (NCI-H23 lung)?
The TGI was 10.4 µM.

And the GI50 (OVCAR-4 ovarian)?
The GI50 was 4.32 µM.

And the TGI (OVCAR-4 ovarian)?
The TGI was 10 µM.

What about the GI50 (NCI-H226 lung) of the same compound?
Its GI50 is 4.6 µM.

And the TGI (NCI-H226 lung)?
The TGI was 9.77 µM.

What about the GI50 (PC-3 prostate) of the same compound?
The GI50 was 2.9 µM.

And the TGI (PC-3 prostate)?
Its TGI is 8.68 µM.

What about the GI50 (DU-145 prostate) of the same compound?
The GI50 was 5.23 µM.

And the TGI (DU-145 prostate)?
Its TGI is 10.4 µM.

What about the GI50 (M14 melanoma) of the same compound?
Its GI50 is 3.63 µM.

And the TGI (M14 melanoma)?
Its TGI is 8.58 µM.

And the GI50 (MDA-MB-435)?
The GI50 was 5.73 µM.

What about the TGI (MDA-MB-435) of the same compound?
The TGI was 11 µM.

What about the GI50 (SK-MEL-2 melanoma) of the same compound?
The GI50 was 5.98 µM.

What about the TGI (SK-MEL-2 melanoma) of the same compound?
Its TGI is 11.4 µM.

What about the GI50 (KM12 colon) of the same compound?
The GI50 was 4.05 µM.

What about the TGI (KM12 colon) of the same compound?
Its TGI is 9.62 µM.

And the GI50 (SK-MEL-28 melanoma)?
The GI50 was 5.33 µM.

And the TGI (SK-MEL-28 melanoma)?
The TGI was 10.4 µM.

What about the GI50 (TK-10 renal) of the same compound?
The GI50 was 6.52 µM.

What about the TGI (TK-10 renal) of the same compound?
The TGI was 12.1 µM.

What about the GI50 (MDA-MB-231 breast) of the same compound?
Its GI50 is 1.84 µM.

What about the TGI (MDA-MB-231 breast) of the same compound?
The TGI was 6.49 µM.

What about the GI50 (SF-268 CNS) of the same compound?
The GI50 was 5.2 µM.

And the TGI (SF-268 CNS)?
Its TGI is 12.5 µM.

And the GI50 (786-0 renal)?
Its GI50 is 4.99 µM.

What about the TGI (786-0 renal) of the same compound?
The TGI was 10.1 µM.

What about the GI50 (UO-31 renal) of the same compound?
The GI50 was 5.68 µM.

And the TGI (UO-31 renal)?
Its TGI is 10.9 µM.

What about the GI50 (MCF7 breast) of the same compound?
Its GI50 is 1.37 µM.

What about the TGI (MCF7 breast) of the same compound?
Its TGI is 6.12 µM.

What about the GI50 (SF-295 CNS) of the same compound?
Its GI50 is 3.41 µM.

What about the TGI (SF-295 CNS) of the same compound?
The TGI was 8.74 µM.

What about the GI50 (HOP-92 NSCLC) of the same compound?
The GI50 was 1.36 µM.

And the TGI (HOP-92 NSCLC)?
Its TGI is 6.15 µM.

And the GI50 (MDA-MB-468 breast)?
The GI50 was 1.56 µM.

And the TGI (MDA-MB-468 breast)?
The TGI was 7.09 µM.

What about the GI50 (SW-620 colon) of the same compound?
The GI50 was 5.89 µM.

What about the TGI (SW-620 colon) of the same compound?
The TGI was 11.6 µM.

What about the GI50 (UACC-62 melanoma) of the same compound?
The GI50 was 6.45 µM.

What about the TGI (UACC-62 melanoma) of the same compound?
The TGI was 11.9 µM.

And the GI50 (SN12C renal)?
The GI50 was 5.49 µM.

What about the TGI (SN12C renal) of the same compound?
Its TGI is 10.8 µM.

And the GI50 (SR leukemia)?
Its GI50 is 1.31 µM.

And the TGI (SR leukemia)?
The TGI was 5.72 µM.

What about the GI50 (OVCAR-5 ovarian) of the same compound?
Its GI50 is 6.1 µM.

And the TGI (OVCAR-5 ovarian)?
Its TGI is 11.5 µM.

What about the GI50 (SF-539 CNS) of the same compound?
Its GI50 is 2.08 µM.

And the TGI (SF-539 CNS)?
Its TGI is 7.59 µM.

And the GI50 (MOLT-4 leukemia)?
Its GI50 is 1.63 µM.

And the TGI (MOLT-4 leukemia)?
Its TGI is 6.75 µM.

And the GI50 (CAKI-1 renal)?
The GI50 was 4.9 µM.

What about the TGI (CAKI-1 renal) of the same compound?
The TGI was 9.97 µM.

What about the GI50 (MALME-3M melanoma) of the same compound?
The GI50 was 4.62 µM.

And the TGI (MALME-3M melanoma)?
The TGI was 9.54 µM.

And the GI50 (HT29 colon)?
The GI50 was 1.32 µM.

What about the TGI (HT29 colon) of the same compound?
Its TGI is 5.08 µM.

And the GI50 (A549 NSCLC)?
Its GI50 is 4.36 µM.

What about the TGI (A549 NSCLC) of the same compound?
Its TGI is 9.66 µM.

And the GI50 (BT-549 breast)?
The GI50 was 5.58 µM.

And the TGI (BT-549 breast)?
The TGI was 10.9 µM.

What about the GI50 (LOX IMVI melanoma) of the same compound?
Its GI50 is 1.55 µM.

What about the TGI (LOX IMVI melanoma) of the same compound?
The TGI was 6.05 µM.

And the GI50 (CCRF-CEM leukemia)?
Its GI50 is 2.15 µM.

And the TGI (CCRF-CEM leukemia)?
Its TGI is 7.65 µM.

And the GI50 (HCT-116 colon)?
Its GI50 is 2.41 µM.

What about the TGI (HCT-116 colon) of the same compound?
The TGI was 7.74 µM.

What about the GI50 (HCC-2998 colon) of the same compound?
The GI50 was 5.25 µM.

What about the TGI (HCC-2998 colon) of the same compound?
The TGI was 10.7 µM.

And the GI50 (EKVX NSCLC)?
Its GI50 is 4.53 µM.

And the TGI (EKVX NSCLC)?
Its TGI is 9.61 µM.

What about the GI50 (ACHN renal) of the same compound?
The GI50 was 4.88 µM.

And the TGI (ACHN renal)?
The TGI was 9.84 µM.

What about the GI50 (COLO 205 colon) of the same compound?
Its GI50 is 5.78 µM.

And the TGI (COLO 205 colon)?
The TGI was 11.7 µM.

And the GI50 (K-562 leukemia)?
The GI50 was 0.882 µM.

What about the TGI (K-562 leukemia) of the same compound?
The TGI was 2.59 µM.

What about the GI50 (IGROV1 ovarian) of the same compound?
Its GI50 is 6.22 µM.

And the TGI (IGROV1 ovarian)?
Its TGI is 12.3 µM.

And the GI50 (RXF 393 renal)?
Its GI50 is 1.75 µM.

And the TGI (RXF 393 renal)?
Its TGI is 6.96 µM.

What about the GI50 (SK-MEL-5 melanoma) of the same compound?
Its GI50 is 5.1 µM.

What about the TGI (SK-MEL-5 melanoma) of the same compound?
The TGI was 10.2 µM.

And the GI50 (HCT-15 colon)?
The GI50 was 1.18 µM.

What about the TGI (HCT-15 colon) of the same compound?
Its TGI is 4.45 µM.
